# Measurements as given in article PMC3049593 (British Journal of Cancer, 2011).
# Tests used:
# Cal27 tumours = experiment: Cal27 head and neck xenograft model; type: in vivo, nude mice; details: 20 mg kg^−1 once-weekly s.c.
# Procedure: (§1) In the orthotopic Hep3b2.1-7 human liver cancer model, treatment of mice (n=10) began 14 days after inoculation of 2.5 × 10^6 cells. […] To initiate tumour xenografts, MDA-MB-231, PC3, Cal27 and HepG2 cells were injected s.c. into nude mice (n=8) at 4, 5, 2 and 2 × 10^7 cells ml^−1, respectively. […] In the B16F0 lung metastasis model, 2 × 10^5 cells were injected via the tail vein of C57Bl6 mice (n=8). […] Surface lung macrometastases were counted for each group (n=9) upon study termination. In the intrasplenic HT-29 xenograft model, 1 × 10^6 cells in 100 μl were injected into the spleen. […] Solid tumours were measured in two dimensions (length and width) and the tumour volume (cm^3) was calculated using the equation: V=length × width^2 × π/6. The anti-tumour activity was expressed as percent tumour growth inhibition (%TGI). Further details are available in Supplementary Methods. […]
# antibody. […]
# staining. For quantification, three independent visual fields (20x magnification) were chosen and positive stained spots or vessels with identifiable lumen were counted.
# Angiogenesis inhibition and induction were calculated using the equations: […]
# regimen both before and after tumour cell inoculation (days -6, -3, 0, +3, +6) or only after tumour cell inoculation (days 0, +3, +6). B16 cell (2x105) were inoculated via tail vein injections and mice were culled and assessed for lung metastases on day 12. […]
# [1] = test system: LL/2 tumours and lung metastases; experiment: syngeneic Lewis Lung Carcinoma (LL/2) tumour growth and spontaneous metastasis model; type: in vivo, mice
# Procedure: as §1
# efficacy/PK study) using either a once or twice weekly dosing schedule (see figure legends for dose schedules in each study) for up to three weeks. […]
# In the LL/2 mouse model, treatment of mice commenced on the day of inoculation (Day 0). Mice inoculated subcutaneously were treated with either Vehicle Control […]
# once weekly or Sorafenib (60mg/kg, once daily, p.o.). The treatments were continued for three weeks. The lungs were excised from all mice at the time of culling for metastasis […]
# count determination. […]
# In relevant models, solid tumours were measured in two dimensions (length and width) and the tumour volume (mm3) calculated using the equation V = length × width2 × π/6.The anti-tumour activity was assessed by the comparison of the mean tumour volume of the treated groups to the mean tumour volume of the control group and expressed as the percent Tumour Growth Inhibition (TGI) using the equation:
# %TGI = (1-((VendPG545 - VstartPG545) / (VendControl - VstartControl)))*100 VendPG545 = Ending Tumour Volume of PG545-treated animal
# VstartPG545 = Starting Tumour Volume of PG545-treated animal
# VendControl = Ending Tumour Volume of Control animal
# VstartControl = Starting Tumour Volume of Control animal […]
# After collection, 0.2 mL of […]
# whole blood was added to a glass scintillation vial to which 1 mL Solvable was added.
# Samples were incubated for one hour at 55-60°C. 0.1 mL of 0.1 M EDTA-di-sodium salt solution and 0.3 mL to 0.5 mL of 30% hydrogen peroxide in 0.1 mL aliquots were added to the sample. Samples were gently agitated between additions to allow reaction foaming to subside. Samples were incubated for 30 minutes at room temperature. Vials were capped tightly and incubated again at 55 – 60 °C fo r 1 hour. Samples were cooled to room temperature and 15 mL of ULTIMA Gold added.
# For tumour samples, 100 mg of tissue was placed in a 20 mL glass scintillation vial and 2 mL of Solvable added. The samples were incubated at 50 - 60 °C for 1 hour with occasional swirling. Samples were cooled to room temperature and for tumours, 0.3 mL of 30% hydrogen peroxide in three aliquots of 0.1 mL were added. The samples were again incubated at 50 - 60 °C for 1 hour with occasional swirling. Tumours samples were […]
structure (smiles),measurement,setting,value
CC(C)CCC[C@@H](C)[C@H]1CCC2C3CCC4C[C@@H](O[C@@H]5O[C@H](COS(=O)(=O)[O-])[C@@H](O[C@H]6O[C@H](COS(=O)(=O)[O-])[C@@H](O[C@H]7O[C@H](COS(=O)(=O)[O-])[C@@H](O[C@H]8O[C@H](COS(=O)(=O)[O-])[C@@H](OS(=O)(=O)[O-])[C@H](OS(=O)(=O)[O-])[C@H]8OS(=O)(=O)[O-])[C@H](OS(=O)(=O)[O-])[C@H]7OS(=O)(=O)[O-])[C@H](OS(=O)(=O)[O-])[C@H]6OS(=O)(=O)[O-])[C@H](OS(=O)(=O)[O-])[C@H]5OS(=O)(=O)[O-])CC[C@]4(C)C3CC[C@@]21C.[Na+].[Na+].[Na+].[Na+].[Na+].[Na+].[Na+].[Na+].[Na+].[Na+].[Na+].[Na+].[Na+] (some centres unmarked) [PG545],TGI,Cal27 tumours,57%
same,TGI (primary tumour),[1]; 20 mg kg^−1 once-weekly,46%
same,TGI / inhibition (lung metastases),[1]; 20 mg kg^−1 once-weekly,96%
same,TGI (lung metastases),[1]; 20 mg kg^−1 single dose,67%
same,TGI (primary tumour),[1]; 20 mg kg^−1 single dose,15%
same,TGI (lung metastases),[1]; 40 mg kg^−1 once-weekly,67%
same,TGI (primary tumour),[1]; 40 mg kg^−1 once-weekly,57%
same,TGI (primary tumour),[1]; 40 mg kg^−1 single dose,33%
